This is an account of results in PubChem BioAssay (NCI).

Some test systems named below: A549 NSCLC; HCC-2998 colon; HS 578T breast; MDA-MB-231 breast; NCI-H460 lung; OVCAR-3 ovarian; OVCAR-5 ovarian; SN12C renal; SW-620 colon; COLO 205 colon.
Assay in all cases: NCI tumour cell line growth inhibition, 48 h

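The compound was tested at five concentrations on cells cultured in 96-well plates, with a 48-hour exposure period. TGI: total growth inhibition.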

With `Cn1c(=O)c2[nH]c(CCCCC(=O)O)nc2n(C)c1=O`, the TGI in the assay with A549 NSCLC, in the assay with HCC-2998 colon, in the assay on HS 578T breast, in the assay with MDA-MB-231 breast, with NCI-H460 lung and with OVCAR-3 ovarian was over 100 µM in each case. The TGI in the assay with OVCAR-5 ovarian, in the assay with SN12C renal and in the assay on SW-620 colon was over 100 µM each time.
For the compound `NC(CCC(=O)O)C(=O)N1CCN(c2nc(N3CCCC3)c3nc(Cl)c(NCc4ccccc4)nc3n2)CC1` (centres undefined), the TGI was 26.1 µM in the assay on A549 NSCLC; 23.9 µM in the assay on COLO 205 colon; 24.9 µM in the assay with HCC-2998 colon; 60.2 µM in the assay with HS 578T breast; 31.2 µM in the assay on MDA-MB-231 breast; 24.9 µM with NCI-H460 lung. Also, the TGI came to 22.9 µM in the assay on OVCAR-3 ovarian, 33.5 µM with OVCAR-5 ovarian, 30.7 µM in the assay with SN12C renal and 51.3 µM in the assay on SW-620 colon.
Regarding `Cc1ccccc1N=Nc1ccc(N/N=C2/CCCNC2=O)c(C)c1`, the TGI in the assay with A549 NSCLC, in the assay on COLO 205 colon, in the assay on HCC-2998 colon, in the assay with HS 578T breast, in the assay with MDA-MB-231 breast and in the assay on NCI-H460 lung was over 100 µM in each case. The TGI in the assay with OVCAR-5 ovarian, with SN12C renal and with SW-620 colon was over 100 µM each time.
Take `Cc1ccc(C)c(COCCOCn2ccc(N)nc2=O)c1`: the TGI in the assay with A549 NSCLC, with COLO 205 colon, with HCC-2998 colon, in the assay on HS 578T breast, in the assay on MDA-MB-231 breast and in the assay with NCI-H460 lung was over 100 µM each time. Besides, the TGI in the assay on OVCAR-3 ovarian, with OVCAR-5 ovarian, in the assay with SN12C renal and in the assay on SW-620 colon was over 100 µM in each case.
As for `COC1(OC)CC(CO)(CNc2nc(N)nc(Cl)c2/C=N\O)C1`, the TGI in the assay with A549 NSCLC, in the assay on COLO 205 colon, in the assay with HCC-2998 colon, in the assay on HS 578T breast, in the assay with MDA-MB-231 breast and in the assay with NCI-H460 lung was over 100 µM in each case. The TGI in the assay with OVCAR-3 ovarian, in the assay with OVCAR-5 ovarian, in the assay on SN12C renal and in the assay with SW-620 colon was over 100 µM each time.
Turning to `C/C=C(/C)C(=O)O[C@H]1C[C@@H]2[C@@H](O)c3occ(C)c3C[C@]2(C)[C@@H](C)C1`, the TGI turned out to be 30.2 µM in the assay on COLO 205 colon; 34 µM in the assay with HCC-2998 colon; 66.7 µM with HS 578T breast; 29.2 µM in the assay with MDA-MB-231 breast; 46.8 µM in the assay on NCI-H460 lung; 31.1 µM with OVCAR-3 ovarian. For the same compound, the TGI with OVCAR-5 ovarian was determined as 34.8 µM; with SN12C renal, 27.3 µM; with SW-620 colon it was 32.6 µM.
As to `O=C(Cc1ccccc1)N/N=C/c1ccccc1O`, the TGI with A549 NSCLC is over 100 µM; with COLO 205 colon it was over 100 µM; with HCC-2998 colon it was over 100 µM; in the assay on HS 578T breast, over 100 µM; in the assay with MDA-MB-231 breast, over 100 µM; with NCI-H460 lung it was 57.1 µM. In addition, the TGI in the assay with OVCAR-3 ovarian, with OVCAR-5 ovarian, in the assay with SN12C renal and in the assay on SW-620 colon was over 100 µM throughout.
As to `C=C1CC[C@H](O)C(C)(C)[C@@H]1CC/C(C)=C/CC/C=C(\C)CC/C=C(\C)CCC=C(C)C`, the TGI in the assay with A549 NSCLC, in the assay on COLO 205 colon, in the assay with HCC-2998 colon, in the assay on HS 578T breast, with MDA-MB-231 breast and with NCI-H460 lung was over 100 µM throughout. Further, the TGI in the assay on OVCAR-3 ovarian, in the assay with OVCAR-5 ovarian, in the assay with SN12C renal and in the assay on SW-620 colon was over 100 µM each time.
With `CCOP(=O)(O)C1C(CO)OC(n2ccc(=O)[nH]c2=O)C1O` (centres undefined), the TGI with A549 NSCLC, in the assay with HCC-2998 colon, in the assay on HS 578T breast, in the assay on MDA-MB-231 breast, with NCI-H460 lung and in the assay with OVCAR-3 ovarian was over 100 µM each time. Besides, the TGI with SN12C renal and in the assay with SW-620 colon was over 100 µM each time.
For the compound `CCn1c(SCC(=O)NNC(=S)Nc2ccc(C)cc2)nc2ccccc2c1=O`, the TGI in the assay on A549 NSCLC, in the assay with COLO 205 colon, with HCC-2998 colon, in the assay with HS 578T breast, in the assay on MDA-MB-231 breast and in the assay on OVCAR-3 ovarian was over 100 µM each time. In addition, the TGI with OVCAR-5 ovarian, in the assay on SN12C renal and in the assay on SW-620 colon was over 100 µM in each case.
With `COC(=O)C(COC(C)=O)NC(=O)/C=C/c1ccc(O)c(OC(C)=O)c1` (centres undefined), the TGI with A549 NSCLC, in the assay with COLO 205 colon, in the assay with HCC-2998 colon, with HS 578T breast, with MDA-MB-231 breast and in the assay on NCI-H460 lung was over 100 µM each time. Moreover, the TGI in the assay with OVCAR-3 ovarian, with OVCAR-5 ovarian, with SN12C renal and in the assay on SW-620 colon was over 100 µM throughout.
As to `O=C1O/C(=C(/Br)c2ccc(Cl)c(Cl)c2)c2ccccc21`, the TGI in the assay with A549 NSCLC, in the assay with COLO 205 colon, in the assay on HCC-2998 colon, with HS 578T breast, in the assay with MDA-MB-231 breast and with NCI-H460 lung was over 10 µM throughout. Besides, the TGI in the assay on OVCAR-3 ovarian, with OVCAR-5 ovarian, with SN12C renal and in the assay with SW-620 colon was over 10 µM throughout.
`O=C1C(Cl)C(c2cccc(Cl)c2)N1c1ccc(-n2c(=S)[nH]c3ccccc3c2=O)cc1` (centres undefined): the TGI in the assay with A549 NSCLC was 81.5 µM; in the assay with COLO 205 colon it was 77.9 µM; in the assay with HCC-2998 colon, 37.8 µM; with HS 578T breast it was 62.1 µM; in the assay with MDA-MB-231 breast it was 74.3 µM; with NCI-H460 lung, 35.3 µM. For the same compound, the TGI in the assay on OVCAR-3 ovarian is over 100 µM; with OVCAR-5 ovarian, 57.5 µM; with SN12C renal it was 31.9 µM; in the assay on SW-620 colon, over 100 µM.
`O=c1[nH]c(Nc2nc3ccccc3[nH]2)nc2c1CCC2`: the TGI in the assay with A549 NSCLC was over 100 µM; with COLO 205 colon, over 100 µM; in the assay on HCC-2998 colon, over 100 µM; in the assay on HS 578T breast it was 63.5 µM; in the assay on MDA-MB-231 breast it was 51.1 µM; in the assay on NCI-H460 lung it was over 100 µM. The TGI with OVCAR-3 ovarian, in the assay with OVCAR-5 ovarian, in the assay on SN12C renal and in the assay with SW-620 colon was over 100 µM each time.
